Data published in paper PMC7044277 (Nature Communications, 2020).
Several values for one entry are separate records, joined by “and”; a condition that tells them apart may be missing. Equal values may be shown once.

How the values were obtained:
[1] = molecular target: T1, DRD4 (D4.4 variant) wild-type (Homo sapiens, UniProt P21917); assay: Radioligand competition binding, [3H]-N-methylspiperone; conditions: DRD4; [3H]-methylspiperone (0.8-1.0 nM); read-out: Ki
T1 sequence (P21917 1-419): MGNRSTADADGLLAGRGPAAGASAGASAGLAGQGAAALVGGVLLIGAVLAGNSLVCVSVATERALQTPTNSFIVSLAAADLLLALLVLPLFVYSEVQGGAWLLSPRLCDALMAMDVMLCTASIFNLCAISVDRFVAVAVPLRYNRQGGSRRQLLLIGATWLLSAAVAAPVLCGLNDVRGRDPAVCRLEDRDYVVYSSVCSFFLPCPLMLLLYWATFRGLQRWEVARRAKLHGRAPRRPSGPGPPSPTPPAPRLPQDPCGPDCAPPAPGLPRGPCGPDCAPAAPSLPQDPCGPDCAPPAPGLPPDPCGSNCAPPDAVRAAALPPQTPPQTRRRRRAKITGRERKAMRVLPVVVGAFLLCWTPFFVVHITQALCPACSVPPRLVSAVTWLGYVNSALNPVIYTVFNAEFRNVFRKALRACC

[2] = molecular target: T2, DRD4 (D4.4 variant) (Homo sapiens, UniProt P21917); assay: Gαi/o-mediated cAMP inhibition (GloSensor); assay type: cell-based; conditions: DRD4; agonist, cAMP inhibition; read-out: EC50 ± SEM
T2 sequence (P21917 1-419): T1 sequence (P21917 1-419)

[3] = molecular target: T2, DRD4 (D4.4 variant); assay: β-arrestin2 recruitment (Tango); assay type: cell-based; conditions: for Fig_S10c concentration-response source data, compound alone (replicates): agonist mode
[4] = molecular target: T3, DRD2 F1103.28L (Homo sapiens, UniProt P14416, F110L); assay: β-arrestin2 recruitment (Tango), mutant; assay type: cell-based
T3 construct: expressed in transfected cells; host or cells: HEK293T (ATCC CRL-11268)

[5] = molecular target: T4, 5HT1A (Homo sapiens, UniProt P08908); assay: β-arrestin2 recruitment (Tango); assay type: cell-based; conditions: Fig_S10f, single replicates
T4 construct: expressed in transfected cells; host or cells: HTLA cells expressing TEV-fused β-arrestin2
T4 sequence (P08908 1-422): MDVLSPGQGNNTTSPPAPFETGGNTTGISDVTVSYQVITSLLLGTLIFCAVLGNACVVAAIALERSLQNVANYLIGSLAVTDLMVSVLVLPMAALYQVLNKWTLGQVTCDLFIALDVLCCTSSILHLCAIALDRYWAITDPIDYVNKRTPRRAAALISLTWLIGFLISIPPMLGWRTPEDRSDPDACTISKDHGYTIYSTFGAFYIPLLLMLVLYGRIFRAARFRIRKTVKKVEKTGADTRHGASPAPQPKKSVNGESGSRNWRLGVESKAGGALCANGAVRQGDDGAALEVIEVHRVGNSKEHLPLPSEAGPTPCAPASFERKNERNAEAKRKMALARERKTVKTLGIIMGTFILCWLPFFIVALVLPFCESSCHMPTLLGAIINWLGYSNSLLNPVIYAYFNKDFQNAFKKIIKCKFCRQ

[6] = molecular target: 5HT1E (Homo sapiens, UniProt P28566); assay: β-arrestin2 recruitment (Tango); assay type: cell-based; conditions: Fig_S10i
Sequence of 5HT1E (P28566 whole entry): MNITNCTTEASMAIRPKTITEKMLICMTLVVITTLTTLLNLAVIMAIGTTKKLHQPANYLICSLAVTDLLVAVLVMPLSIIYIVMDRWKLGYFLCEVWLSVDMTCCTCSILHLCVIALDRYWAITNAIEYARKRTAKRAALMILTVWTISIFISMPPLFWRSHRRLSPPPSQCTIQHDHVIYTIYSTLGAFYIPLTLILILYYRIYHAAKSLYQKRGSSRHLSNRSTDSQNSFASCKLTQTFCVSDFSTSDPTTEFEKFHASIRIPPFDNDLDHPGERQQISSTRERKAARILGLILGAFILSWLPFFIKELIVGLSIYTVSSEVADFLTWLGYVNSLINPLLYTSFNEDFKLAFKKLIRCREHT

T3 sequence (P14416 whole entry F110L): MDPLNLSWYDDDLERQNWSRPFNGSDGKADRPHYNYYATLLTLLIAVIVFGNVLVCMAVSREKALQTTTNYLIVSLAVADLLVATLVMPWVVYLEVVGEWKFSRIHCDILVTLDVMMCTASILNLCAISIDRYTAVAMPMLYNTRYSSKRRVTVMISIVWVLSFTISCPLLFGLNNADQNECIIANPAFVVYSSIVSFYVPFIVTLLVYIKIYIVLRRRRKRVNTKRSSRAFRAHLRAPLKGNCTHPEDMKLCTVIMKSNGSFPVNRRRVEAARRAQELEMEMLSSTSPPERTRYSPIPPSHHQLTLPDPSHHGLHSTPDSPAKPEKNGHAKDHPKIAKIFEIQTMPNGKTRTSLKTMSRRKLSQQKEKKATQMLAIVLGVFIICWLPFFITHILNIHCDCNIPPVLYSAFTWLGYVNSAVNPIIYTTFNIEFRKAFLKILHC

Compound: CCOc1cccc2cc([C@@H](C)NCC3(O)CCCCC3)oc12 [O4RE6]
- Ki [1]: > 10 µM
- EC50 [2]: > 10 µM
- EC50 ([3]; DRD4, Tango, read-out: EC50 ± SEM): > 10 µM
- β-arrestin2 recruitment response at DRD4 (source data, replicate values) ([3]; Log[Drug] -5): 6.217 and 2.763 and 2.001 and 1.287 and 1.775 and 4.058 and 4.003 and 0.06427 and 0.2106
- Fig_S10c concentration-response source data, compound alone (replicates) ([3]; Log[Drug] -5): 5.394 and 8.31 and 11.4353 and 9.275 and 2.582 and 4.074 and 8.729 and 7.933 and 14.0378
- β-arrestin2 recruitment response at DRD4 (source data, replicate values) ([3]; Log[Drug] -5.52): 2.6039 and -1.106 and -1.946 and -0.4701 and 1.404 and 2.39 and 0.8979 and 0.0552 and 0.08381
- Fig_S10c concentration-response source data, compound alone (replicates) ([3]; Log[Drug] -5.52): 1.202 and 2.837 and 2.321 and 1.635 and 2.366 and 3.787 and 1.627 and 3.207 and 0.6688
- β-arrestin2 recruitment response at DRD4 (source data, replicate values) ([3]; Log[Drug] -6): 3.584 and -1.188 and -0.584 and -0.6588 and 0.8796 and 1.83 and 0.7762 and 0.03516 and 0.171
- Fig_S10c concentration-response source data, compound alone (replicates) ([3]; Log[Drug] -6): 2.086 and 2.7849 and 3.425 and -0.09437 and 0.02849 and 3.5238 and 0.3966 and 3.288 and 1.462
- β-arrestin2 recruitment response at DRD4 (source data, replicate values) ([3]; Log[Drug] -6.52): 1.007 and 4.325 and 1.323 and -0.8974 and 1.527 and -0.05366 and -0.1047 and 0.03541 and 0.08444
- Fig_S10c concentration-response source data, compound alone (replicates) ([3]; Log[Drug] -6.52): 1.505 and 1.478 and 5.593 and -1.936 and -0.8155 and 0.5983 and 2.508 and 1.037 and -0.4712
- β-arrestin2 recruitment response at DRD4 (source data, replicate values) ([3]; Log[Drug] -7): 1.079 and -1.731 and -1.221 and -1.369 and 0.6898 and 0.678 and 1.948 and 0.1059 and 0.1355
- Fig_S10c concentration-response source data, compound alone (replicates) ([3]; Log[Drug] -7): 2.288 and 4.238 and 0.7634 and -1.02 and 3.3404 and -2.026 and 1.575 and 0.945 and -0.6741
- β-arrestin2 recruitment response at DRD4 (source data, replicate values) ([3]; Log[Drug] -7.52): 0.371 and -1.716 and -1.784 and -0.5805 and -0.6243 and 1.534 and -0.4267 and 0.02533 and 0.04436
- β-arrestin2 recruitment response at DRD4 (source data, replicate values) ([3]; Log[Drug] -8): 0.8799 and -0.7087 and -1.711 and -1.318 and -0.195 and -0.3626 and 1.952 and 0.0707 and 0.1967
- β-arrestin2 recruitment response at DRD4 (source data, replicate values) ([3]; Log[Drug] -8.52): 1.656 and -1.517 and -1.8 and 0.5698 and 0.5353 and -0.6701 and 0.003927 and 0.031 and 0.0242
- β-arrestin2 recruitment response at DRD4 (source data, replicate values) ([3]; Log[Drug] -9): 0.08244 and -0.5912 and 1.416 and -2.021 and 1.101 and 0.6872 and 0.9463 and -0.03415 and 0.05621
- β-arrestin2 recruitment response at DRD4 (source data, replicate values) ([3]; Log[Drug] -10.52): 2.403
- β-arrestin2 recruitment response at DRD4 (source data, replicate values) ([3]; Log[Drug] -11): 4.161 and -1.784 and -1.43 and 0.349 and 0.8023 and -0.5301 and 2.686 and -0.07952 and -0.04373
- β-arrestin2 recruitment response at DRD4 (source data, replicate values) ([3]; Log[Drug] -11.52): 0.6452 and -1.9266 and -1.439 and -0.7995 and -0.6204 and 1.59 and -0.483 and -0.008444 and -0.04903
- EC50 [4]: 215 nM
- Emax ([4]; read-out: Emax relative to quinpirole response): 7.76%
- β-arrestin2 recruitment response, agonist mode (normalized) ([5]; Log[Drug] -9.52): -0.3383 and -0.3342 and -0.9983 and -0.221 and -0.03249 and 2.194 and -0.4129 and -0.6658 and 0.08323
- β-arrestin2 recruitment response, agonist mode (normalized) ([5]; Log[Drug] -10): -0.1671 and -0.3383 and -0.5054 and -0.1386 and -0.3173 and 2.583 and 0.605 and 2.666 and 1.376
- β-arrestin2 recruitment response, agonist mode (normalized) ([5]; Log[Drug] -10.52): 0 and 0.5013 and 0.1546 and 0.5578 and -0.1419 and 1.096 and 1.898 and -0.4417 and 0.06082
- β-arrestin2 recruitment response, agonist mode (normalized) ([5]; Log[Drug] -11): -0.5138 and -0.6767 and 1.165 and 0.7257 and 0.3249 and 3.762 and 0.9795 and 5.224 and 0.4673
- β-arrestin2 recruitment response, agonist mode (normalized) ([5]; Log[Drug] -11.52): 1.8254 and -0.1796 and 0.1546 and 0.208 and -0.007582 and -0.4495 and -0.8035 and 0.7362 and -0.4065
- β-arrestin2 recruitment response, agonist mode (normalized) ([5]; Log[Drug] -12): -0.1713 and 0.3383 and -0.1671 and 0.2155 and 0.391 and -0.6055 and 0.7554 and -0.4001 and 0.1248
- β-arrestin2 recruitment response, agonist mode (single replicate values) ([6]; Log[Drug] -5.52): -0.8838
- β-arrestin2 recruitment response, agonist mode (single replicate values) ([6]; Log[Drug] -6): 5.169 and -3.421 and -7.045 and -2.335 and -9.923 and 2.004 and -14.6813 and -14.4526 and -10.0186
- β-arrestin2 recruitment response, agonist mode (single replicate values) ([6]; Log[Drug] -6.52): 5.136 and -8.797 and -1.582 and 6.94 and -5.772 and 9.5977 and -9.147 and -14.4969 and -14.6019
